Reference: PMC6159918 (Peptides, 2018)
Like-named read-outs stand apart in the source and are kept apart here.

How the values were obtained:
human BRS-3-receptor [1] = target: T1, human BRS-3-receptor (Homo sapiens, UniProt P32247); test: p42/44 MAPK phosphorylation; format: cell-based; conditions: for EC50: EC50, p42/44 phosphorylation; for P-p42/44 (Exp/control): MK-5046 10 nM, 3 min
T1 sequence (P32247 1-399): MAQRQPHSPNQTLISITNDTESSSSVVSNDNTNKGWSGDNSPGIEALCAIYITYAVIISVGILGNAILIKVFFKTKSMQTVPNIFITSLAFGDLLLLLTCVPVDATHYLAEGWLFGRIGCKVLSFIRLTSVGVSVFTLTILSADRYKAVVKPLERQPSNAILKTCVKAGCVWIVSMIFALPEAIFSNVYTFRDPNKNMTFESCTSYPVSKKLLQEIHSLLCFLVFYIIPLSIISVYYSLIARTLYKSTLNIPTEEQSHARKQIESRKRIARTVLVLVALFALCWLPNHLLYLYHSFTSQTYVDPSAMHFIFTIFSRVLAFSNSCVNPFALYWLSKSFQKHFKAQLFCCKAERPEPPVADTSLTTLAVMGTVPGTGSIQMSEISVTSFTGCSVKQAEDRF

BRS-3/Balb cells = conditions: 24 h serum-free, Balb-3T3 BRS-3-transfected
human BRS-3-receptor [2] = target: T1, human BRS-3-receptor; test: [3H]-inositol phosphates; format: cell-based; conditions: for EC50: EC50, release of [3H]IP; for [3H]IP (Exp/control) / [3H]IP (DPM): MK-5046 10 nM
human BRS-3-receptor [3] = target: T1, human BRS-3-receptor; test: Cytosolic Ca2+; format: cell-based; conditions: MK-5046 10 nM
human lung-cancer cells = test: cells; format: cell-based; conditions: for EC50: Homo sapiens; for [3H]-Thymidine Incorporation (Exp/control): 24 h serum-free

dose-response curve shape, p42/44 phosphorylation (human BRS-3-receptor [1]; BRS-3/H1299-transfected-cells): monophasic | EC50 (human BRS-3-receptor [1]; BRS-3/H1299-cells): 1.9 ± 0.16 nM | EC50 (human BRS-3-receptor [1]; NCI-H69): 0.12 ± 0.01 nM | EC50 (human BRS-3-receptor [1]; NCI-H82): 1.08 ± 0.16 nM | EC50 (human BRS-3-receptor [1]; NCI-H720): 1.14 ± 0.57 nM | EC50 (human BRS-3-receptor [1]; NCI-H727): 0.02 ± 0.01 nM | EC50 (human BRS-3-receptor [1]; NCI-N417): 0.02 ± 0.01 nM | P-p42/44 (Exp/control) (human BRS-3-receptor [1]; Balb-3T3 BRS-3 transfected): 1.85 ± 0.21 Exp/control | P-p42/44 (Exp/control) (human BRS-3-receptor [1]; NCI-H69 (SCLC)): 1.95 ± 0.18 Exp/control | P-p42/44 (Exp/control) (human BRS-3-receptor [1]; NCI-H82 (SCLC)): 1.50 ± 0.10 Exp/control | P-p42/44 (Exp/control) (human BRS-3-receptor [1]; NCI-H358 (NSCLC)): 2.33 ± 0.34 Exp/control | P-p42/44 (Exp/control) (human BRS-3-receptor [1]; NCI-H460 (NSCLC)): 1.07 ± 0.16 Exp/control | P-p42/44 (Exp/control) (human BRS-3-receptor [1]; NCI-H510 (SCLC)): 2.22 ± 0.13 Exp/control | P-p42/44 (Exp/control) (human BRS-3-receptor [1]; NCI-H520 (NSCLC)): 1.88 ± 0.24 Exp/control | P-p42/44 (Exp/control) (human BRS-3-receptor [1]; NCI-H1299 BRS-3 transfected): 1.54 ± 0.28 Exp/control | P-p42/44 (Exp/control) (human BRS-3-receptor [1]; NCI-N417 (SCLC)): 1.64 ± 0.25 Exp/control | decrease in p42/44-phosphorylation at supramaximal concentrations (human BRS-3-receptor [1]; NCI-H82-cells, p < 0.002): 50 ± 7% | decrease in p42/44-phosphorylation at supramaximal concentrations (human BRS-3-receptor [1]; NCI-H727-cells, p < 0.0001): 49 ± 9% | decrease in p42/44-phosphorylation at supramaximal concentrations (human BRS-3-receptor [1]; NCI-N417, p < 0.0001): 29 ± 6% | dose-response curve shape, p42/44 phosphorylation (human BRS-3-receptor [1]; all the cells (NCI-H727, NCI-H720, NCI-H69, NCI-H82, NCI-N417) except BRS-3/H1299): biphasic | Emax at 1 µM (human BRS-3-receptor [1]; read-out: maximal stimulation of p42/44-MAPK phosphorylation): 96 ± 7% | greatest [3H]IP-increase in IP-production (human BRS-3-receptor [2]; BRS-3/H1299-cells): 8 fold | EC50 (human BRS-3-receptor [2]; BRS-3/H1299 cells): 0.37 ± 0.04 nM | EC50 (human BRS-3-receptor [2]; NCI-H69 cells): 3.29 ± 0.54 nM | EC50 (human BRS-3-receptor [2]; NCI-H720 cells): 0.14 ± 0.05 nM | decrease in [3H]IP-release at supramaximal concentrations (human BRS-3-receptor [2]; H720 cells, p < 0.05): 28% | [3H]IP (Exp/control) (human BRS-3-receptor [2]; Balb-3T3 BRS-3 transfected): 7.50 ± 0.68 Exp/control | [3H]IP (DPM) (human BRS-3-receptor [2]; Balb-3T3 BRS-3 transfected, control 2487 ± 185): 18657 ± 1698 DPM | [3H]IP (Exp/control) (human BRS-3-receptor [2]; NCI-H69 (SCLC)): 3.38 ± 0.17 Exp/control | [3H]IP (DPM) (human BRS-3-receptor [2]; NCI-H69 (SCLC), control 177 ± 27): 597 ± 29 DPM | [3H]IP (Exp/control) (human BRS-3-receptor [2]; NCI-H82 (SCLC)): 2.09 ± 0.33 Exp/control | [3H]IP (Exp/control) (human BRS-3-receptor [2]; NCI-H358 (NSCLC)): 1.50 ± 0.15 Exp/control | [3H]IP (Exp/control) (human BRS-3-receptor [2]; NCI-H460 (NSCLC)): 1.63 ± 0.18 Exp/control | [3H]IP (Exp/control) (human BRS-3-receptor [2]; NCI-H510 (SCLC)): 1.12 ± 0.05 Exp/control | [3H]IP (Exp/control) (human BRS-3-receptor [2]; NCI-H520 (NSCLC)): 1.84 ± 0.36 Exp/control | [3H]IP (Exp/control) (human BRS-3-receptor [2]; NCI-H1299 BRS-3 transfected): 7.63 ± 0.77 Exp/control | [3H]IP (Exp/control) (human BRS-3-receptor [2]; NCI-N417 (SCLC)): 4.31 ± 1.03 Exp/control | [3H]IP (DPM) (human BRS-3-receptor [2]; NCI-N417 (SCLC), control 660 ± 87): 2850 ± 571 DPM | maximal stimulated [3H]IP value (human BRS-3-receptor [2]; NCI-H69 cells, 100 nM MK-5046, control 177 ± 27 dpm): 834 ± 66 dpm | maximal stimulated [3H]IP value (human BRS-3-receptor [2]; NCI-H720 cells, 10 nM MK-5046, control 268 ± 23 dpm): 375 ± 31 dpm | maximal stimulated [3H]IP value (human BRS-3-receptor [2]; hBRS-3-NCI-H1299 cells, 100 nM MK-5046, control 1169 ± 88 dpm): 10,144 ± 1310 dpm | Ca2+ release (% over basal) (human BRS-3-receptor [3]; Balb-3T3 BRS-3 transfected): 7.43 ± 1.22 % over basal | Ca2+ release (% over basal) (human BRS-3-receptor [3]; NCI-H69 (SCLC)): 3.09 ± 0.67 % over basal | Ca2+ release (% over basal) (human BRS-3-receptor [3]; NCI-H82 (SCLC)): 9.00 ± 1.11 % over basal | Ca2+ release (% over basal) (human BRS-3-receptor [3]; NCI-H358 (NSCLC)): 1.65 ± 0.43 % over basal | Ca2+ release (% over basal) (human BRS-3-receptor [3]; NCI-H460 (NSCLC)): 5.77 ± 1.41 % over basal | Ca2+ release (% over basal) (human BRS-3-receptor [3]; NCI-H510 (SCLC)): 2.94 ± 0.52 % over basal | Ca2+ release (% over basal) (human BRS-3-receptor [3]; NCI-H520 (NSCLC)): 2.60 ± 0.40 % over basal | Ca2+ release (% over basal) (human BRS-3-receptor [3]; NCI-H1299 BRS-3 transfected): 8.04 ± 0.55 % over basal | Ca2+ release (% over basal) (human BRS-3-receptor [3]; NCI-N417 (SCLC)): 4.40 ± 0.62 % over basal | EC50 (human lung-cancer cells; NCI-H69, read-out: EC50, [3H]-Thymidine-uptake): 0.27 ± 0.06 nM | EC50 (human lung-cancer cells; NCI-H358, read-out: EC50, [3H]-Thymidine-uptake): 0.52 ± 0.07 nM | EC50 (human lung-cancer cells; NCI-H727, read-out: EC50, [3H]-Thymidine-uptake): 0.31 ± 0.06 nM
SMILES: O[C@@](Cc1nc(CC2(C(F)(F)F)CC2)c[nH]1)(c1ccc(-n2cccn2)cc1)C(F)(F)F [MK-5046, (2S)-1,1,1-trifluoro-2-[4-(1H-pyrazol-1-yl)phenyl]-3-(4-[[1-(trifluoromethyl)cyclopropyl]methyl]-1H-imidazol-2-yl)propan-2-ol]
P-p42/44 (Exp/control) (human BRS-3-receptor [1]; NCI-H720 (carcinoid)): 2.53 ± 0.39 Exp/control | P-p42/44 (Exp/control) (human BRS-3-receptor [1]; NCI-H727 (carcinoid)): 2.41 ± 0.34 Exp/control | [3H]-Thymidine Incorporation (Exp/control) (BRS-3/Balb cells; MK-5046 10 nM): 1.00 ± 0.04 Exp/control | [3H]-Thymidine Incorporation (Exp/control) (BRS-3/Balb cells; MK-5046 1 μM): 1.24 ± 0.07 Exp/control | [3H]IP (Exp/control) (human BRS-3-receptor [2]; NCI-H720 (carcinoid)): 1.64 ± 0.22 Exp/control | [3H]IP (Exp/control) (human BRS-3-receptor [2]; NCI-H727 (carcinoid)): 2.59 ± 0.22 Exp/control | [3H]IP (DPM) (human BRS-3-receptor [2]; NCI-H727 (carcinoid), control 143 ± 21): 371 ± 32 DPM | Ca2+ release (% over basal) (human BRS-3-receptor [3]; NCI-H720 (carcinoid)): 2.40 ± 0.28 % over basal | Ca2+ release (% over basal) (human BRS-3-receptor [3]; NCI-H727 (carcinoid)): 6.26 ± 1.43 % over basal | [3H]-Thymidine Incorporation (Exp/control) (human lung-cancer cells; MK-5046 10 nM, NCI-H69): 1.36 ± 0.09 Exp/control | [3H]-Thymidine Incorporation (Exp/control) (human lung-cancer cells; MK-5046 10 nM, NCI-H82): 1.08 ± 0.08 Exp/control | [3H]-Thymidine Incorporation (Exp/control) (human lung-cancer cells; MK-5046 10 nM, NCI-H358): 1.20 ± 0.05 Exp/control | [3H]-Thymidine Incorporation (Exp/control) (human lung-cancer cells; MK-5046 10 nM, NCI-H460): 1.29 ± 0.07 Exp/control | [3H]-Thymidine Incorporation (Exp/control) (human lung-cancer cells; MK-5046 10 nM, NCI-H510): 1.39 ± 0.04 Exp/control | [3H]-Thymidine Incorporation (Exp/control) (human lung-cancer cells; MK-5046 10 nM, NCI-H520): 1.27 ± 0.10 Exp/control | [3H]-Thymidine Incorporation (Exp/control) (human lung-cancer cells; MK-5046 10 nM, NCI-H720): 1.15 ± 0.04 Exp/control | [3H]-Thymidine Incorporation (Exp/control) (human lung-cancer cells; MK-5046 10 nM, NCI-H727): 1.41 ± 0.18 Exp/control | [3H]-Thymidine Incorporation (Exp/control) (human lung-cancer cells; MK-5046 10 nM, NCI-H1299 BRS-3-transfected): 1.41 ± 0.06 Exp/control | [3H]-Thymidine Incorporation (Exp/control) (human lung-cancer cells; MK-5046 10 nM, NCI-N417): 1.29 ± 0.08 Exp/control | [3H]-Thymidine Incorporation (Exp/control) (human lung-cancer cells; MK-5046 1 μM, NCI-H69): 0.76 ± 0.07 Exp/control | [3H]-Thymidine Incorporation (Exp/control) (human lung-cancer cells; MK-5046 1 μM, NCI-H82): 1.17 ± 0.05 Exp/control | [3H]-Thymidine Incorporation (Exp/control) (human lung-cancer cells; MK-5046 1 μM, NCI-H358): 1.15 ± 0.06 Exp/control | [3H]-Thymidine Incorporation (Exp/control) (human lung-cancer cells; MK-5046 1 μM, NCI-H460): 1.07 ± 0.07 Exp/control | [3H]-Thymidine Incorporation (Exp/control) (human lung-cancer cells; MK-5046 1 μM, NCI-H510): 1.36 ± 0.10 Exp/control | [3H]-Thymidine Incorporation (Exp/control) (human lung-cancer cells; MK-5046 1 μM, NCI-H520): 1.07 ± 0.14 Exp/control | [3H]-Thymidine Incorporation (Exp/control) (human lung-cancer cells; MK-5046 1 μM, NCI-H720): 1.17 ± 0.03 Exp/control | [3H]-Thymidine Incorporation (Exp/control) (human lung-cancer cells; MK-5046 1 μM, NCI-H727): 1.47 ± 0.16 Exp/control | [3H]-Thymidine Incorporation (Exp/control) (human lung-cancer cells; MK-5046 1 μM, NCI-H1299 BRS-3-transfected): 1.27 ± 0.11 Exp/control | [3H]-Thymidine Incorporation (Exp/control) (human lung-cancer cells; MK-5046 1 μM, NCI-N417): 1.26 ± 0.07 Exp/control | decrease in [3H]-Thymidine-uptake at supramaximal concentrations (human lung-cancer cells; NCI-H69-cells): 87% | decrease in [3H]-Thymidine-uptake at supramaximal concentrations (human lung-cancer cells; NCI-H358-cells): 23%
